The values that follow come from ChEMBL document CHEMBL5126565, “Discovery of (2-phenylthiazol-4-yl)urea derivatives that induce neuronal differentiation from mesenchymal stem cells” (Bioorg Med Chem Lett, 2022).

Active and inactive are the calls of the source. The rule behind the calls is not given here.

Data set [1] has as its system Mesenchymal stem cells. Put plainly: Induction of neural differentiation in human derived mesenchymal stem cells assessed as neuron formation measured TuJI expression by immunohistochemical analysis. Type of data set: functional, cell-based. Conditions: dose 2-5 µM.
Data set [2] can be described thus: Induction of neural differentiation in human derived mesenchymal stem cells assessed as neuron formation at 5 uM measured TuJI expression by immunohistochemical analysis relative to control. Type of data set: functional.
The subject of data set [3] is Mesenchymal stem cells. The data set can be described thus: Effect on cell cycle progression in human derived mesenchymal stem cells upto 20 uM measured after 4 days. Type of data set: toxicity, cell-based. The following applies: 96 h, time 4 day.
A short description of data set [4]: Solubility of compound in culture media. Type of data set: physicochemical.
The subject of data set [5] is Mesenchymal stem cells. Put plainly: Cytotoxicity against human derived mesenchymal stem cells assessed as cell viability upto 20 uM measured after 4 days. Type of data set: toxicity, cell-based. The following applies: 96 h, time 4 day.

On to `O=C(NCc1csc(-c2ccccc2)n1)N1CCOCC1`, for which the values for the Activity result in the data set on Mesenchymal stem cells [1] (DDE = dose-dependent effect), with Mesenchymal stem cells [3] and in the data set on Mesenchymal stem cells [5] were “Dde”, “Non-Toxic” and “Non-Toxic”, respectively. Further, the “fold change (FC)” value in data set [2] is listed as 2. Besides, in data set [4], the solubility entry is listed as “Soluble”.
As for `CN1CCN(C(=O)NCc2csc(-c3ccccc3)n2)CC1`, the result in the data set on Mesenchymal stem cells [1] was Active. The Activity result with Mesenchymal stem cells [3] and with Mesenchymal stem cells [5] was “Non-Toxic” throughout. Besides, the solubility result in data set [4] was “Soluble”.
